Experimental data: patent US11186577B2, “Vasopressin receptor antagonists and products and methods related thereto” (BlackThorn Therapeutics, Inc., priority 2017, dated 2021)
One block for each compound: values may come before it.

Key:
[1] = target: human Arginine Vasopressin Receptor V2 (AVPR2) (Homo sapiens (Human), UniProt P30518); assay: Vasopressin V2 receptor antagonist assay (cAMP TR-FRET, 1321N1 cells); format: cell-based
[2] = target: human Oxytocin Receptor (hOTR) (Homo sapiens (Human), UniProt P30559); assay: Oxytocin receptor antagonist assay (oxytocin-evoked calcium, FLIPR, CHEM-1-hOTR cells); format: cell-based; conditions: read-out: OT IC50
Outline: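 Antagonist mode in CHEM-1-hOTR cells loaded with Calcium-6 dye; compounds (10-point, 1:3 series) preincubated 15 min at 37 °C, then oxytocin added at daily-determined EC80 in HBSS/20 mM HEPES with 0.1% BSA. Fluorescence (ex 470-495, em 515-575 nm) followed 3 min on FLIPR^TETRA; concentration-dependent reduction of oxytocin response measured.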

human Arginine Vasopressin Receptor V2 (AVPR2), sequence (P30518 whole entry): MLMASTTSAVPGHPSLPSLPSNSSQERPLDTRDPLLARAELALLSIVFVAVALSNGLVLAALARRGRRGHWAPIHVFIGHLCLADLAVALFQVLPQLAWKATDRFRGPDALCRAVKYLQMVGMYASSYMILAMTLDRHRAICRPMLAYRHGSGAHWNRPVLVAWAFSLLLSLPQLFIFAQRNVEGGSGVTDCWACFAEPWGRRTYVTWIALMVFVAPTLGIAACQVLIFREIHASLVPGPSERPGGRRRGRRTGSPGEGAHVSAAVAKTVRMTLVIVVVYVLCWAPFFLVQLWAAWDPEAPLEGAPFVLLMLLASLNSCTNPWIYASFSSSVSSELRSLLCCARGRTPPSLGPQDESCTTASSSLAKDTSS
human Oxytocin Receptor (hOTR), sequence (P30559 whole entry): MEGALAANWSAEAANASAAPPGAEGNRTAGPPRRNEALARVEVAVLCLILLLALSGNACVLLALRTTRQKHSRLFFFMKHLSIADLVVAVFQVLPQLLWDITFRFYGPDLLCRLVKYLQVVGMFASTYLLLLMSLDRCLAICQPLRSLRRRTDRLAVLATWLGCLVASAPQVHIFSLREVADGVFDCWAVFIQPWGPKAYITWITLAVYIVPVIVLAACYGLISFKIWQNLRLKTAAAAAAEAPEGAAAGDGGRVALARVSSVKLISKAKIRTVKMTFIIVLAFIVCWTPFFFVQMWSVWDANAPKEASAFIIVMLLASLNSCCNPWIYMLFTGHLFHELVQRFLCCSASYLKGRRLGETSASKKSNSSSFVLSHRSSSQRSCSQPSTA

IC50 [1]: > 1000 nM | IC50 [2]: 100 to 500 nM
SMILES: O=C(N1Cc2cc(Cl)ccc2-c2c(C3CC4(C3)CN(c3cccnn3)C4)noc2C1)C(F)(F)F [compound 105]

SMILES: COC(=O)N1Cc2cc(Cl)ccc2-n2c(nnc2C2CC3(C2)CN(c2ccccn2)C3)C1 [compound 70]
IC50 [1]: 100 to 500 nM | IC50 [2]: 500 to 1000 nM

SMILES: CC1c2nnc(C3CC4(C3)CN(c3ncccn3)C4)n2-c2ccc(Cl)cc2CN1C(=O)OC(CF)CF (single isomer, unassigned) [Cpd 202A]
IC50 [1]: > 1000 nM | IC50 [2]: > 1000 nM

SMILES: CCC(=O)N1Cc2cc(Cl)ccc2-n2c(nnc2C2CC3(C2)CN(c2ccc(F)cn2)C3)C1 [compound 72]
IC50 [1]: 100 to 500 nM | IC50 [2]: > 1000 nM

SMILES: COC(=O)N1Cc2cc(Cl)ccc2-n2c(nnc2C2CC3(C2)CN(c2ccc(F)cn2)C3)C1 [compound 61]
IC50 [1]: 100 to 500 nM | IC50 [2]: 500 to 1000 nM

SMILES: CCN1Cc2cc(Cl)ccc2-n2c(nnc2C2CC3(C2)CN(c2ccc(F)cn2)C3)C1 [compound 49]
IC50 [1]: 100 to 500 nM | IC50 [2]: > 1000 nM

SMILES: CC1c2nnc(C3CC4(C3)CN(c3ncccn3)C4)n2-c2ccc(Cl)cc2CN1C(=O)C1(F)CC1 (stereo not drawn) [compound 175]
IC50 [1]: > 1000 nM | IC50 [2]: > 1000 nM

SMILES: CC1c2nnc(C3CC4(C3)CN(c3ncc(F)cn3)C4)n2-c2ccc(Cl)cc2CN1C(=O)OC1(C)CC1 (stereo not drawn) [compound 173]
IC50 [1]: > 1000 nM | IC50 [2]: 100 to 500 nM

SMILES: COC(=O)N1Cc2cc(Cl)ccc2-n2c(C3CC4(C3)CN(c3ccc(F)cn3)C4)nnc2C1C (single isomer, unassigned) [Cpd 142B]
IC50 [1]: > 1000 nM | IC50 [2]: 500 to 1000 nM

SMILES: CCN1Cc2cc(Cl)ccc2-n2c(nnc2C2CC3(C2)CN(c2ccccn2)C3)C1 [compound 45]
IC50 [1]: 100 to 500 nM | IC50 [2]: > 1000 nM

SMILES: CC1c2nnc(C3CC4(C3)CN(c3ccc(F)cn3)C4)n2-c2ccc(Cl)cc2CN1C (single isomer, unassigned) [Cpd 179A]
IC50 [1]: > 1000 nM | IC50 [2]: > 1000 nM

SMILES: CCOC(=O)N1Cc2cc(Cl)ccc2-n2c(nnc2C2CC3(C2)CN(c2ccc(F)cn2)C3)C1 [compound 69]
IC50 [1]: 100 to 500 nM | IC50 [2]: 100 to 500 nM

SMILES: CC(C)N1Cc2cc(Cl)ccc2-n2c(nnc2C2CC3(C2)CN(c2ccccn2)C3)C1 [compound 48]
IC50 [1]: 500 to 1000 nM | IC50 [2]: > 1000 nM

SMILES: CC(C)C(=O)N1Cc2cc(Cl)ccc2-n2c(nnc2C2CC3(C2)CN(c2ccc(F)cn2)C3)C1 [compound 63]
IC50 [1]: 500 to 1000 nM | IC50 [2]: > 1000 nM

SMILES: O=C(C1CC1)N1CC2(CC(c3nnc4n3-c3ccc(Cl)cc3CN(C(=O)C3(F)CC3)C4)C2)C1 [compound 136]
IC50 [1]: > 1000 nM | IC50 [2]: > 1000 nM

SMILES: COC(=O)N1Cc2cc(Cl)ccc2-n2c(C3CC4(C3)CN(c3ncccc3F)C4)nnc2C1C (stereo not drawn) [compound 182]
IC50 [1]: 500 to 1000 nM | IC50 [2]: 500 to 1000 nM

SMILES: CCN1Cc2cc(Cl)ccc2-n2c(nnc2C2CC3(C2)CN(c2cnccn2)C3)C1 [compound 46]
IC50 [1]: > 1000 nM | IC50 [2]: > 1000 nM

SMILES: CC1c2nnc(C3CC4(C3)CN(c3ccccn3)C4)n2-c2ccc(Cl)cc2CN1C(=O)C1(F)CC1 (single isomer, unassigned) [Cpd 181A]
IC50 [1]: 100 to 500 nM | IC50 [2]: 100 to 500 nM

SMILES: FCCN1Cc2cc(Cl)ccc2-n2c(nnc2C2CC3(C2)CN(c2ccccn2)C3)C1 [compound 59]
IC50 [1]: 500 to 1000 nM | IC50 [2]: > 1000 nM

SMILES: CN1Cc2cc(Cl)ccc2-n2c(nnc2C2CC3(C2)CN(C(=O)C2CC2)C3)C1 [compound 28]
IC50 [1]: > 1000 nM | IC50 [2]: > 1000 nM

SMILES: CC(C)OC(=O)N1Cc2cc(Cl)ccc2-n2c(C3CC4(C3)CN(c3cnccn3)C4)nnc2C1C (stereo not drawn) [compound 164]
IC50 [1]: > 1000 nM | IC50 [2]: 100 to 500 nM

SMILES: O=C(N1Cc2cc(Cl)ccc2-n2c(nnc2C2CC3(C2)CN(c2cnccn2)C3)C1)C1(F)CC1 [compound 81]
IC50 [1]: > 1000 nM | IC50 [2]: > 1000 nM

SMILES: COC(=O)N1Cc2cc(Cl)ccc2-n2c(C3CC4(C3)CN(c3cnccn3)C4)nnc2C1C (single isomer, unassigned) [Cpd 165A]
IC50 [1]: > 1000 nM | IC50 [2]: 500 to 1000 nM

SMILES: Clc1ccc2c(c1)CN(C1CCC1)Cc1nnc(C3CC4(C3)CN(c3ccccn3)C4)n1-2 [compound 41]
IC50 [1]: < 100 nM | IC50 [2]: 500 to 1000 nM
